The record followed here is US8975406B2, “Compound useful for the treatment of degenerative and inflammatory diseases” (Galapagos N.V., priority 2011, dated 2015).

What all share (format): biochemical
For one test, the target named is T1, Recombinant human JAK2 (Homo sapiens, UniProt O60674).
T1 construct: catalytic domain (amino acids 808-1132; catalog number PV4210); GST; purchased Invitrogen PV4210
The test is described as follows: JAK2 Ulight-JAK1 peptide assay. To be noted: Ulight-JAK1(tyr1023) peptide, 7.5 μM ATP. The method, then:
Recombinant human JAK2 (catalytic domain, amino acids […]; catalog number PV4210) was purchased from Invitrogen. 0.0125 mU of JAK2 was incubated with 25 nM Ulight-JAK1(tyr1023) peptide (Perkin Elmer catalog number TRF0121) in kinase reaction buffer (25 mM HEPES pH7.0, 0.01% Triton X-100, 7.5 mM MgCl2, 2 mM DTT, 7.5 μM ATP) with or without 4 μL containing test compound or vehicle (DMSO, 1% final concentration), in a total volume of 20 μL, in a white 384 Opti plate (Perkin Elmer, catalog number 6007290). After 60 min at room temperature, reactions were stopped by adding 20 μL/well of detection mixture (1× detection buffer (Perkin Elmer, catalog number CR97-100C), 0.5 nM Europium-anti-phosphotyrosine (PT66) (Perkin Elmer, catalog number AD0068), 10 mM EDTA). Readout is performed using the Envision with excitation at 320 nm and measuring emission at 615 nm (Perkin Elmer). Kinase activity was calculated by subtracting relative fluorescence units (RFU) obtained in the presence of a positive control inhibitor (10 μM staurosporine) from RFU obtained in the presence of vehicle. The ability of a test compound to inhibit this activity was determined as: Percentage inhibition=((RFU determined for sample with test compound present−RFU determined for sample with positive control inhibitor)divided by(RFU determined in the presence of vehicle−RFU determined for sample with positive control inhibitor))*100.
Dose dilution series were prepared for each compound enabling the testing of dose-response effects in the JAK2 assay and the calculation of the IC50 for the compound. Each compound is routinely tested at concentration of 20 μM followed by a ⅕ serial dilution, 10 points in a final concentration of 1% DMSO. When potency of compound series increases, more dilutions are prepared and/or the top concentration are lowered (e.g. 5 μM, 1 μM). The data are expressed as the average IC50 from the assays±standard error of the mean.

Another test deals with T2, Recombinant human JAK1 (Homo sapiens, UniProt P23458).
T2 construct: catalytic domain (amino acids 866-1154; catalog number PV4774); purchased Invitrogen PV4774
T2 sequence (P23458 866-1154): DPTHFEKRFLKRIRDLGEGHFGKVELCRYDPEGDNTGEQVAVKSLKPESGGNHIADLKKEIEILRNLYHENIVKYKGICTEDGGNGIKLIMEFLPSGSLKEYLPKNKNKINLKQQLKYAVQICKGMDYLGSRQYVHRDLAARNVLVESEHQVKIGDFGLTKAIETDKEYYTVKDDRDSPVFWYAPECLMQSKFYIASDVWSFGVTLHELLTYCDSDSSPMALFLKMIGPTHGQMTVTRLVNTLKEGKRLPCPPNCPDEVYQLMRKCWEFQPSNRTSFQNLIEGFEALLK
The test is described as follows: JAK1 Ulight-JAK1 peptide assay. The following applies: Ulight-JAK1(tyr1023) peptide, 7 μM ATP. The method, then:
Recombinant human JAK1 (catalytic domain, amino acids 866-1154; catalog number PV4774) was purchased from Invitrogen. 1 ng of JAK1 was incubated with 20 nM Ulight-JAK1(tyr1023) peptide (Perkin Elmer catalog number TRF0121) in kinase reaction buffer (25 mM MOPS pH6.8, 0.01% Brij-35, 5 mM MgCl2, 2 mM DTT, 7 μM ATP) with or without 4 μL containing test compound or vehicle (DMSO, 1% final concentration), in a total volume of 20 μL, in a white 384 Opti plate (Perkin Elmer, catalog number 6007290). After 60 min at room temperature, reactions were stopped by adding 20 μL/well of detection mixture (1× detection buffer (Perkin Elmer, catalog number CR97-100C), 0.5 nM Europium-anti-phosphotyrosine (PT66) (Perkin Elmer, catalog number AD0068), 10 mM EDTA). Readout is performed using the Envision with excitation at 320 nm and measuring emission at 615 nm (Perkin Elmer). Kinase activity was calculated by subtracting relative fluorescence units (RFU) obtained in the presence of a positive control inhibitor (10 μM staurosporine) from RFU obtained in the presence of vehicle. The ability of a test compound to inhibit this activity was determined as: Percentage inhibition=((RFU determined for sample with test compound present−RFU determined for sample with positive control inhibitor)divided by(RFU determined in the presence of vehicle−RFU determined for sample with positive control inhibitor))*100.
Dose dilution series were prepared for the compounds enabling the testing of dose-response effects in the JAK1 assay and the calculation of the IC50 for the compound. Each compound is routinely tested at concentration of 20 μM followed by a ⅕ serial dilution, 10 points in a final concentration of 1% DMSO. When potency of compound series increases, more dilutions are prepared and/or the top concentration are lowered (e.g. 5 μM, 1 μM). The data are expressed as the average IC50 from the assays±standard error of the mean.

Test [1] has as its target T3, Recombinant human JAK3 catalytic domain (Homo sapiens, UniProt P52333).
T3 construct: catalytic domain (amino acids 795-1124; catalog number 08-046); purchased Carna Biosciences 08-046
The test is described as follows: JAK3 inhibition assay. To be noted: polyGT substrate, 33P-gamma-ATP filter assay, 1 μM ATP. Here is the method:
Recombinant human JAK3 catalytic domain (amino acids 795-1124; catalog number 08-046) was purchased from Carna Biosciences. 0.5 ng JAK3 protein was incubated with 2.5 μg polyGT substrate (Sigma catalog number P0275) in kinase reaction buffer (25 mM Tris pH 7.5, 0.5 mM EGTA, 10 mM MgCl2, 2.5 mM DTT, 0.5 mM Na3VO4, 5 mM b-glycerolphosphate, 0.01% Triton X-100, 1 μM non-radioactive ATP, 0.25 μCi ^33P-gamma-ATP (Perkin Elmer, catalog number NEG602K001MC) final concentrations) with or without 5 μL containing test compound or vehicle (DMSO, 1% final concentration), in a total volume of 25 μL, in a polypropylene 96-well plate (Greiner, V-bottom). After 45 min at 30° C., reactions were stopped by adding 25 μL/well of 150 mM phosphoric acid. All of the terminated kinase reaction was transferred to prewashed (75 mM phosphoric acid) 96 well filter plates (Perkin Elmer catalog number 6005177) using a cell harvester (Perkin Elmer). Plates were washed 6 times with 300 μL per well of a 75 mM phosphoric acid solution and the bottom of the plates was sealed. 40 μL/well of Microscint-20 was added, the top of the plates was sealed and readout was performed using the Topcount (Perkin Elmer). Kinase activity was calculated by subtracting counts per min (cpm) obtained in the presence of a positive control inhibitor (10 μM staurosporine) from cpm obtained in the presence of vehicle. The ability of a test compound to inhibit this activity was determined as: Percentage inhibition=((cpm determined for sample with test compound present−cpm determined for sample with positive control inhibitor)divided by(cpm determined in the presence of vehicle−cpm determined for sample with positive control inhibitor))*100.
Dose dilution series were prepared for the compounds enabling the testing of dose-response effects in the JAK3 assay and the calculation of the IC50 for each compound. Each compound was routinely tested at concentration of 20 μM followed by a ⅕ serial dilution, 10 points in a final concentration of 1% DMSO. When potency of compound series increased, more dilutions were prepared and/or the top concentration was lowered (e.g. 5 μM, 1 μM).

T1 sequence (O60674 808-1132): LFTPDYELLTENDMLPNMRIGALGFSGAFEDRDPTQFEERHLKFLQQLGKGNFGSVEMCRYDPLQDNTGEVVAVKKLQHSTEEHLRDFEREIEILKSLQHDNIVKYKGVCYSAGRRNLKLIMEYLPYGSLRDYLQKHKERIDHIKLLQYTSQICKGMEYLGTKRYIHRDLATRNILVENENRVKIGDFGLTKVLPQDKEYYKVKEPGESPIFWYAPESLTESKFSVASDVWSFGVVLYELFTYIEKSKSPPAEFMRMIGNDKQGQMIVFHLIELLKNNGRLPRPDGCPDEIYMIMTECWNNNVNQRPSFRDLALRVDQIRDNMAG
T3 sequence (P52333 795-1124): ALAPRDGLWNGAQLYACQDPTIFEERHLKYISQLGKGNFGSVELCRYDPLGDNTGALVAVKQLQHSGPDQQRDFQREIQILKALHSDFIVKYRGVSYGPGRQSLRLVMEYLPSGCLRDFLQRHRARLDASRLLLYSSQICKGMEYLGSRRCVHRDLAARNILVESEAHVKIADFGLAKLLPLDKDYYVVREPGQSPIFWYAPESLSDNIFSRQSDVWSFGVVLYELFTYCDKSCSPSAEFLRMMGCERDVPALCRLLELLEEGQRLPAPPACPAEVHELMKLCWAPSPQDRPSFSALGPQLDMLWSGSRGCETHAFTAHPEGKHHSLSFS

In the case of `CC(=O)Nc1cc2c(-c3ccc(C(=O)N4CCOCC4)cc3)cccn2n1` [Compound 42, N-(4-(4-(morpholine-4-carbonyl)phenyl)pyrazolo[1,5-a]pyridin-2-yl)acetamide], the values for the IC50 at Recombinant human JAK2 and on Recombinant human JAK1 were 101 to 500 nM and 501 to 1000 nM, respectively.
Turning to `O=C(Nc1nn2cccc(-c3ccc(C(=O)N4CCCCC4)cc3)c2c1Cl)C1CC1` [Compound 16, N-(3-chloro-4-(4-(piperidine-1-carbonyl)phenyl)pyrazolo[1,5-a]pyridin-2-yl)cyclopropanecarboxamide], the half-inhibitory concentration (IC50) (as a rule, the midpoint of a concentration-inhibition curve) on Recombinant human JAK2 was > 1000 nM; at Recombinant human JAK1 it was 101 to 500 nM.
Turning to `CC(=O)Nc1cc2c(-c3cnc(OCCn4cccn4)c(F)c3)cccn2n1` [Compound 30], the IC50 at Recombinant human JAK2 and at Recombinant human JAK1 was 101 to 500 nM in each case.
Regarding `CC(=O)Nc1cc2c(-c3ccc(CC(=O)N4CCC4)cc3)cccn2n1` [Compound 33, N-(4-(4-(2-(azetidin-1-yl)-2-oxoethyl)phenyl)pyrazolo[1,5-a]pyridin-2-yl)acetamide], the IC50 was 101 to 500 nM at Recombinant human JAK2, > 1000 nM in test [1] and 101 to 500 nM on Recombinant human JAK1.
Consider `CC(=O)Nc1cc2c(-c3ccc(C(=O)N4CC(F)(F)C4)cc3)cccn2n1` [Compound 41, N-(4-(4-(3,3-difluoroazetidine-1-carbonyl)phenyl)pyrazolo[1,5-a]pyridin-2-yl)acetamide], for which the IC50 at Recombinant human JAK2 and at Recombinant human JAK1 was 101 to 500 nM each time.
`CC(=O)Nc1cc2c(-c3ccc(C(=O)N4CCCCC4)cc3)cccn2n1` [Compound 40, N-(4-(4-(piperidine-1-carbonyl)phenyl)pyrazolo[1,5-a]pyridin-2-yl)acetamide]: the IC50 on Recombinant human JAK2 and on Recombinant human JAK1 was 101 to 500 nM each time.
Take `CC(=O)Nc1cc2c(-c3ccc(CC(=O)N4C[C@@H](C)O[C@@H](C)C4)cc3)cccn2n1` [Compound 37, N-(4-(4-(2-((2S,6R)-2,6-dimethylmorpholino)-2-oxoethyl)phenyl)pyrazolo[1,5-a]pyridin-2-yl)acetamide]: the results for the IC50 at Recombinant human JAK2 and on Recombinant human JAK1 were 101 to 500 nM and > 1000 nM, respectively.
In the case of `CC(=O)Nc1cc2c(-c3ccc(C(=O)N4COCC4(C)C)cc3)cccn2n1` [Compound 31, N-(4-(4-(4,4-dimethyloxazolidine-3-carbonyl)phenyl)pyrazolo[1,5-a]pyridin-2-yl)acetamide], the IC50 on Recombinant human JAK2 and at Recombinant human JAK1 was 101 to 500 nM in each case.
As to `COC(=O)N1CCN(Cc2ccc(-c3cccn4nc(NC(C)=O)cc34)cc2)CC1` [Compound 22], the IC50 on Recombinant human JAK2 and at Recombinant human JAK1 was 101 to 500 nM each time.
For `CC(=O)Nc1cc2c(-c3ccc(C(=O)N4C[C@@H](C)O[C@@H](C)C4)cc3)cccn2n1` [Compound 39, N-(4-(4-((2S,6R)-2,6-dimethylmorpholine-4-carbonyl)phenyl)pyrazolo[1,5-a]pyridin-2-yl)acetamide], the IC50 on Recombinant human JAK2 and on Recombinant human JAK1 was 101 to 500 nM each time.
Take `CC(=O)Nc1cc2c(-c3ccc(C(=O)N4CCC4)cc3)cccn2n1` [Compound 32, N-(4-(4-(azetidine-1-carbonyl)phenyl)pyrazolo[1,5-a]pyridin-2-yl)acetamide]: the half-inhibitory concentration (IC50) at Recombinant human JAK2 and at Recombinant human JAK1 was 101 to 500 nM in each case.
